# ChEMBL document CHEMBL1201862, “PubChem BioAssay data set” (2004)
# The source made the active and inactive calls.
# Tests used:
# [1] = non-specific 3'UTR reporter inhibition in Clone20-Shn3RL – cell-based, Renilla luciferase, cherry-picked, counter-screen for Shn3 inhibitor project, dose response (AID 624133); format: functional
# [2] = tested on: BJ; assay: growth inhibition of engineered Ras-driven BJ cells – cell-based, alamar blue fluorescence, cherrypicked samples, dose response (AID 2631); format: functional; conditions: Homo sapiens;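 further: confirmatory dose-response assay in RAS-dependent BJ fibroblasts engineered with TERT, LT and ST, with cytotoxicity read by fluorescence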
# [3] = target: Mothers against decapentaplegic homolog 3 (Homo sapiens, UniProt P84022); assay: inhibitors of SMAD-driven TGF-beta signaling – dose response (AID 715); format: functional
# Chain of Mothers against decapentaplegic homolog 3 (P84022 whole entry): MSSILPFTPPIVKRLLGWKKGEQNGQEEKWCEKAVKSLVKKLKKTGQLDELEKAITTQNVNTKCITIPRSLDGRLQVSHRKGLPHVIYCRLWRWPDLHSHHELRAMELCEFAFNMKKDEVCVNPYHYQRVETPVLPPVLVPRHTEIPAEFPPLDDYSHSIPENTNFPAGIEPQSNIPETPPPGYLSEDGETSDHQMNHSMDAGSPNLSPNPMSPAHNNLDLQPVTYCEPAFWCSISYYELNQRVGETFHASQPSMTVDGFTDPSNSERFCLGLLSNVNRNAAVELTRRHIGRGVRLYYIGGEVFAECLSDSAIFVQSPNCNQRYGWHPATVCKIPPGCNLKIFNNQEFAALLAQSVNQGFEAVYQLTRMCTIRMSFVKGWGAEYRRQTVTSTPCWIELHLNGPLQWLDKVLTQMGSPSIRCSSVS
# [4] = DRD fibroblast viability loss – cell-based, non-viral oncogenic, luminescence, dose response (AID 1934); format: functional; conditions: Homo sapiens
# [5] = loss of viability in HepG2 cells – cell-based, CellTiter-Glo, cherry-picked, cytotoxicity control for Shn3 inhibitor project, dose response (AID 624134); format: functional
# [6] = alpha-synuclein stem-loop luciferase translation blockers – H4 neuroglioma cells, luminescence, confirmation (AID 1988); format: functional, cell-based
# [7] = tested on: BJ; assay: cells; format: functional, cell-based; conditions: Homo sapiens
# [8] = reduction of Shn3 3'UTR-driven luciferase in osteoblasts – cell-based, Clone20 osteoblasts, firefly luciferase, cherry-picked, dose response (AID 624132); format: functional;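 further: firefly luciferase luminescence from reporter carrying the Shn3 3'UTR in osteoblasts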
# [9] = Luminescence Cell-Based Dose Response HTS to Identify Inhibitors of 5'UTR Stem-Loop Driven Prion Protein mRNA Translation in H4 Neuroglioblastoma Cells. [Related pubchem assays: 1827 (Project Summary), 1813 (Primary HTS)]; format: functional
# [10] = tested on: HEK293; assay: EBV LMP1 TES2 canonical NF-kB signalling blockers – cell-based, HEK293, luciferase, cherry-pick, dose response (AID 588343); format: functional; conditions: Homo sapiens
# [11] = target: T1, Apoptotic protease-activating factor 1 (Homo sapiens, UniProt O14727); format: functional
# T1 sequence (O14727 whole entry): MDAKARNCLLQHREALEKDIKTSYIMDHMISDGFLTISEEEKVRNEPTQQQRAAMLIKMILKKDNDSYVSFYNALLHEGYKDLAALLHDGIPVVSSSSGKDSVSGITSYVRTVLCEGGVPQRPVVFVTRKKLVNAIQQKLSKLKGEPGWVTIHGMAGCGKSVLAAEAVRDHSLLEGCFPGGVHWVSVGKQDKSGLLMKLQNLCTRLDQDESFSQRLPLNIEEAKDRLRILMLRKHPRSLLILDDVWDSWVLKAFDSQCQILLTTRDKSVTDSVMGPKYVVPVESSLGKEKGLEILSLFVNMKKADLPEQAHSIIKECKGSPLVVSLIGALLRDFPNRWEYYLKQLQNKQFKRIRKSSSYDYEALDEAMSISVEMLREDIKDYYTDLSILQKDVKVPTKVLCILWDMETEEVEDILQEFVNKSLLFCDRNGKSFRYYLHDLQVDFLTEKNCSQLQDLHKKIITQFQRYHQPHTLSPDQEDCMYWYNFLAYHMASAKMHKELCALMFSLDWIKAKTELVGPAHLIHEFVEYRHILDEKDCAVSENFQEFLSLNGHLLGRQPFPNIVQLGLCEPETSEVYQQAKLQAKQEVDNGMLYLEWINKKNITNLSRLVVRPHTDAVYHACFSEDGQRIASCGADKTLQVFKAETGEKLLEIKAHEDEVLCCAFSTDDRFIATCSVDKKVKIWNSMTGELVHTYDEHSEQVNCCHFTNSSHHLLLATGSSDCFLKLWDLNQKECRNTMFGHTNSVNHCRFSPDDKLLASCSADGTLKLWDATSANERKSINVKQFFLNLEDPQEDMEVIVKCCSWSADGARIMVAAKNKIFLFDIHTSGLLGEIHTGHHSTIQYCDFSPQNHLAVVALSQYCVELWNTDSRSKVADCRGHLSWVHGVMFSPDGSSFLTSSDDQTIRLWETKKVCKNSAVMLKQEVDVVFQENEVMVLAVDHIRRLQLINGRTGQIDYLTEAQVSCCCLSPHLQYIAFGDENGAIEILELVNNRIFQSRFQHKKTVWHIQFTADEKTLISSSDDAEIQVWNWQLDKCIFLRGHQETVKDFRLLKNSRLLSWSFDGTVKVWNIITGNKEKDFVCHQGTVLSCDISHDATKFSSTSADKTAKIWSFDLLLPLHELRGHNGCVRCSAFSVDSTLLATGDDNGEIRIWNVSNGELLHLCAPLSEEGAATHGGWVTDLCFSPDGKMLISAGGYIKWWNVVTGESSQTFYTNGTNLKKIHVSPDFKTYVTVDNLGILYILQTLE
# [12] = tested on: Vero; assay: mammalian cell viability reduction – secondary assay, cytotoxicity control for West Nile virus antiviral project, dose response (AID 1650); format: functional; conditions: Chlorocebus sabaeus
# [13] = tested on: BJ; assay: BJ-TERT fibroblast viability loss – cell-based, RAS-independent, luminescence, dose response (AID 1933); format: functional; conditions: Homo sapiens
# [14] = luciferase reporter signal suppression in cells – H4 neuroglioma cells, luminescence, dose response (AID 1990); format: functional, cell-based
# [15] = reduced cellular PGC1a acetyl-lysine signal – cell-based, cherry-picked samples, dose response (AID 720514); format: functional;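 further: potency may reflect raised or lowered acetylation signal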
# [16] = target: Latent membrane protein 1 (Human herpesvirus 4 (strain B95-8), UniProt P03230); assay: LMP1 TES1 pathway selectivity over dsRED control – imaging, HEK293T, dual-color eGFP/dsRED, cherry-picks, selectivity assay for LMP1 NF-kB inhibitor project, dose response (AID 588398); format: functional, cell-based
# Chain of Latent membrane protein 1 (P03230 whole entry): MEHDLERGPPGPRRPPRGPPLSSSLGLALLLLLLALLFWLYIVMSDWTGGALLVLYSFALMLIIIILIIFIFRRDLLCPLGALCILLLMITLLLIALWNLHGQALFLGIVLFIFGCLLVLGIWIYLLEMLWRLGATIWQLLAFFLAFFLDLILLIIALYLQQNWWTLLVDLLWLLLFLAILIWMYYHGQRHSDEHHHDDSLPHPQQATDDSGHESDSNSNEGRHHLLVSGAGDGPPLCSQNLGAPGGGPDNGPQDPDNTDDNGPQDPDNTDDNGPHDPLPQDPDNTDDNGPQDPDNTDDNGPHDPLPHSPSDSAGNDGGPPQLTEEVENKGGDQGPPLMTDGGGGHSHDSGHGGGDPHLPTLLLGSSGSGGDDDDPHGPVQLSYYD
# [17] = tested on: BJ; assay: BJ-TERT-LT-ST fibroblast viability loss – cell-based, RAS-independent, luminescence, dose response (AID 1935); format: functional; conditions: Homo sapiens;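 further: BJ fibroblasts immortalized with TERT plus LT and ST oncogenes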
# [18] = Mcl1-dependent cancer cell viability – HMC-1-8 cells, luminescence, dry powder, selectivity assay for A1 inhibitor project, dose response (AID 504415); format: functional, cell-based; conditions: Homo sapiens
# [19] = target: T2, Sentrin-specific protease 7 (Homo sapiens, UniProt Q9BQF6); assay: inhibition of human SENP7 cleavage activity – biochemical, luminescence, SAR follow-up (AID 504497); format: functional
# T2 sequence (Q9BQF6 whole entry): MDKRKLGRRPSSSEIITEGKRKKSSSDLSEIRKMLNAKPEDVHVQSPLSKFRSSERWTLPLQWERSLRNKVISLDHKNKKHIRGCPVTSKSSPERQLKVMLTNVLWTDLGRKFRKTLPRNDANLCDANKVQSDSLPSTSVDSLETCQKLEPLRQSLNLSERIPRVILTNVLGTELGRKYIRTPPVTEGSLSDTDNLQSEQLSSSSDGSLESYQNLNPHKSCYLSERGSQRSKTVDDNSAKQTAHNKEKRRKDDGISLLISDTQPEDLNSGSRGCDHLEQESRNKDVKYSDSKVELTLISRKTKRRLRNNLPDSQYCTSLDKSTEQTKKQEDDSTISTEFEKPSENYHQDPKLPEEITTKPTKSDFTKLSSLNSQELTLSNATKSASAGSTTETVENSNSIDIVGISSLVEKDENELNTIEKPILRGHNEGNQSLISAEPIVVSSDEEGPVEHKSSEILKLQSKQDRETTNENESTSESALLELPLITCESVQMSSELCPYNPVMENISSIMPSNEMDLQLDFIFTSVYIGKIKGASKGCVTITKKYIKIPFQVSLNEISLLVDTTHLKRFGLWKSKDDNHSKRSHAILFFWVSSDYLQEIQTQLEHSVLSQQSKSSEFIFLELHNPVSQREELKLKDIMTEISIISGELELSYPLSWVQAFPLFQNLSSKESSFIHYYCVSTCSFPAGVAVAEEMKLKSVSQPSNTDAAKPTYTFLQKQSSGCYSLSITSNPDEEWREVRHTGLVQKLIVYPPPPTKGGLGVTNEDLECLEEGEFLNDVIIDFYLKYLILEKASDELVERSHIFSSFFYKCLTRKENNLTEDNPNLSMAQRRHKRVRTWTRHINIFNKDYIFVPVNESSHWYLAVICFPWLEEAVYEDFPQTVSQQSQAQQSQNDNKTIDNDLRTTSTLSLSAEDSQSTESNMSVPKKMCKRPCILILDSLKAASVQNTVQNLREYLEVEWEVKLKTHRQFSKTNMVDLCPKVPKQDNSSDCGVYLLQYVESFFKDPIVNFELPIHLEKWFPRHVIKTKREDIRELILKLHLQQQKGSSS
# [20] = target: T3, Sentrin-specific protease 6 (Homo sapiens, UniProt Q9GZR1); assay: SAR Analysis of small molecule inhibitors of Sentrin-specific protease 6 (SENP6) using a Luminescent assay. [Related pubchem assays (depositor defined):AID2582, AID2599]; format: functional
# T3 sequence (Q9GZR1 whole entry): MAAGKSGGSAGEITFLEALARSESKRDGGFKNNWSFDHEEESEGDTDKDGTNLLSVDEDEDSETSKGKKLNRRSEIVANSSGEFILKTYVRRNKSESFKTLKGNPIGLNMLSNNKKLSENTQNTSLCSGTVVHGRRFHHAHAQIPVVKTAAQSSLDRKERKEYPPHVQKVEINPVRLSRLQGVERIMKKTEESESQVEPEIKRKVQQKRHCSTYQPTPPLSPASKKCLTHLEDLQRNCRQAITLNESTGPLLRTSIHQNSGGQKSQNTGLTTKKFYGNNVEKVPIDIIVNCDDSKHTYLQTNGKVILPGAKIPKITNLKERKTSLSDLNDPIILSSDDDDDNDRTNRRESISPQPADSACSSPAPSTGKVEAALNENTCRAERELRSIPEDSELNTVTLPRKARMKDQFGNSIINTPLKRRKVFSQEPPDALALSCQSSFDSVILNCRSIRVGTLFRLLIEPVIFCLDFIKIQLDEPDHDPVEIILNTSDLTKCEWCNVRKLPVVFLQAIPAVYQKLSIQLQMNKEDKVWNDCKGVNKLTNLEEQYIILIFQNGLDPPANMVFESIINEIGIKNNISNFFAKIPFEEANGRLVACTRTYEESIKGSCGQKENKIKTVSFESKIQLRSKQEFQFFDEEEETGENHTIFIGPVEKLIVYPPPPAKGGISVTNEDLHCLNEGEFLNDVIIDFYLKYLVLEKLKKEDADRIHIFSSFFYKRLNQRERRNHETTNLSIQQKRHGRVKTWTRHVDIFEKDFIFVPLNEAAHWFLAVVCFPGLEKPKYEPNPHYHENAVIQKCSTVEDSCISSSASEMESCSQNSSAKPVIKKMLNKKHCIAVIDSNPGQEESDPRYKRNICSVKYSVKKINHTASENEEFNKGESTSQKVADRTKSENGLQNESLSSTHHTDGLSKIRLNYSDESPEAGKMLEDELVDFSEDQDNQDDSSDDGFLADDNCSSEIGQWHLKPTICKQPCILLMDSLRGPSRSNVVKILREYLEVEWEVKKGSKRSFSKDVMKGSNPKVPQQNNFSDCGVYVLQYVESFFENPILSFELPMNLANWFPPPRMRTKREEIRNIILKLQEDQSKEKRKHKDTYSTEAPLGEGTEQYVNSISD
# [21] = target: T3, Sentrin-specific protease 6; assay: inhibition of human SENP6 catalytic domain – biochemical, luminescence, set 2, SAR follow-up (AID 588598); format: functional
# [22] = target: T4, Caspase-3 (Homo sapiens, UniProt P42574); assay: inhibition of recombinant caspase-3 activity – biochemical, luminescence, set 2, selectivity assay for SENP protease inhibitor project, SAR follow-up (AID 588599); format: functional
# T4 sequence (P42574 whole entry): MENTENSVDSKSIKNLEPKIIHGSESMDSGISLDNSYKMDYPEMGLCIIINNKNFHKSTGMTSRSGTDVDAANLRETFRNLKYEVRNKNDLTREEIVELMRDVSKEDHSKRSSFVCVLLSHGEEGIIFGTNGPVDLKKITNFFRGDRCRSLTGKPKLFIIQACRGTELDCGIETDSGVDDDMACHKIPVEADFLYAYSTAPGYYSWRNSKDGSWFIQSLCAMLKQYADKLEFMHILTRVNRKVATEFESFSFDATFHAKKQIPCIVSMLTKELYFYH
# [23] = target: T5, Sentrin-specific protease 8 (Homo sapiens, UniProt Q96LD8); assay: inhibition of sentrin protease 8 – biochemical, luminescence, set 2, SAR follow-up (AID 588601); format: functional
# T5 sequence (Q96LD8 whole entry): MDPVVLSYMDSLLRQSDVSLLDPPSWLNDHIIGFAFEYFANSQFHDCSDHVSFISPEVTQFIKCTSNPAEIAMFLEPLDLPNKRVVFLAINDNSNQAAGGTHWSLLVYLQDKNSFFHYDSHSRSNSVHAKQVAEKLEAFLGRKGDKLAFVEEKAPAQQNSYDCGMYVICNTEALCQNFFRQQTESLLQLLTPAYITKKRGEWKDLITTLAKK
# [24] = target: T2, Sentrin-specific protease 7; assay: inhibition of human SENP7 cleavage activity – biochemical, luminescence, set 2, SAR follow-up (AID 588600); format: functional
# [25] = target: T5, Sentrin-specific protease 8; assay: inhibition of human SENP8 cleavage activity – biochemical, luminescence, SAR follow-up (AID 504501); format: functional
# [26] = target: T4, Caspase-3; assay: SAR Analysis of small molecule inhibitors of Sentrin-specific proteases (SENPs) using a Caspase-3 Selectivity assay. [Related pubchem assays (depositor defined):AID2540, AID2599, AID434973, AID489001]; format: functional
smiles,measurement,setting,value
CCOC(=O)c1c2c(n(C)c1C)C(=O)C(=O)c1ccc(Br)cc1-2,AC50,[1],1.6 µM (active)
same,EC50,[2],0.52 µM (active)
same,IC50,[3],10.4 µM (active)
same,EC50,[4],5.41 µM (active)
same,AC50,[5],3.95 µM (active)
same,EC50,[6],3.58 µM (active)
same,EC50,[7],8.06 µM (inconclusive)
same,AC50,[8],1.01 µM (active)
same,EC50,[9],8.25 µM (active)
same,AC50,[10],2.51 µM (active)
same,IC50,[11],0.797 µM (active)
same,CC50,[12],6.53 µM (active)
same,EC50,[13],4.88 µM (active)
same,EC50,[14],6.23 µM (active)
same,AC50,[15],4.34 µM (active)
same,AC50,[16],41.1 µM (active)
same,EC50,[17],5.56 µM (inconclusive)
O=c1oc2ccccc2c(Nc2cc(Cl)cc(Cl)c2)c1[N+](=O)[O-],AC50,[18],31.2 µM (active)
Fc1cccc(F)c1-c1nc(/C=C/c2ccccc2)no1,IC50,[19],5.5 µM (active)
same,IC50,[20],14 µM (active)
same,IC50,[21],6.72 µM (active)
same,IC50,[22],18 µM (active)
same,IC50,[23],6.98 µM (active)
same,IC50,[24],8.02 µM (active)
same,IC50,[25],15 µM (active)
same,IC50,[26],20 µM (active)
